From paper PMC11093748, “De novo identification of CD4^+ T cell epitopes” (Nature Methods, 2024)

Key:
BDC2.5 TCR = assay: I-Ag7 SABR-II library screen, enrichment score; format: cell-based, mouse; conditions: I-Ag7 library
Source text: We then asked whether SABR-IIs could be used to present a library of epitopes for CD4^+ T cell antigen discovery. To that end, we constructed a SABR-II library to present epitopes derived from pancreatic islets in I-Ag7 by curating a list of 4,075 published epitopes from the Immune Epitope Database (iedb.org)[50] and a study by Wan et al.[51] (Supplementary Table 1). Of note, this defined library consisted of unmodified epitopes from endogenous proteins, synthetic mimotopes, deamidated epitopes and hybrid insulin peptides (HIPs) that arise from post-translational fusion and are not genetically encoded in vivo[52],[53]. The epitope library was inserted into the I-Ag7 SABR-II backbone through pooled oligonucleotide synthesis, amplification and ligation-free cloning (Extended Data Fig. 3a). The I-Ag7 SABR-II-library was then expressed in NFAT–GFP Jurkat cells. We confirmed that after sequencing, the library accounted for a mean of 708 reads per epitope (Extended Data Fig. 3b). As a proof of concept, we performed co-incubation assays with Jurkat cells expressing the BDC2.5 TCR and sorted the top 1–2% of GFP^+CD69^+ cells at a rate of ~20 min per replicate with three replicates per TCR. We extracted the genomic DNA from sorted cells, amplified the SABR portion of the integrated proviruses and subjected the amplicons to Illumina sequencing (Extended Data Fig. 3c,d). The 1–2% sort gate represents >50-fold enrichment of cognate epitopes with minimal loss of signal (Extended Data Fig. 3e–h). Sequence reads were aligned to the I-Ag7 SABR-II backbone and the corresponding epitopes were scored based on their read counts. For each TCR under investigation, an enrichment score (ES) was determined for all the epitopes in a library. In each experiment, three replicates of a sort with TCR-expressing Jurkat cells were performed and reads were counted post-sequencing. In addition, three replicates of the unsorted library were also sequenced. A linear regression model was built using the unsorted library counts and used to determine the expected abundance of each epitope in the library. The ES was calculated based on the difference between the measured and the expected abundance of each epitope on a per-TCR basis (Fig. 1e). Based on ES values, two quantitative thresholds were used to determine putative cognate epitopes of a given TCR. A high-confidence zone containing clear outliers with a high ES and a low-confidence zone containing weak outliers with a moderately high ES were determined (Fig. 1e). This two-tiered strategy was used to call putative hits from screens. All the top-scoring epitopes for the BDC2.5 TCR were known BDC2.5 ligands containing the WXRM(D/E) motif (Fig. 1f,g, enriched ligands in red), a well-characterized trait of the BDC2.5 TCR[43],[54]–[56]. Across several independent experiments there was limited variation in ES values for the same TCRs and several epitopes fell into high- or low-confidence zones consistently (Extended Data Fig. 4a). Using a different TCR that was isolated from NOD mice, 4-8Ins[57], which recognized the InsB9:23 epitope ([…]), we observed a similar pattern of ES for cognate epitopes (Extended Data Fig. 4b).
For SABR library screens, 3 × 10^6 NFAT–GFP Jurkat cells expressing the SABR library were labeled with CellTrace Violet (BioLegend) according to the manufacturer’s protocol before incubation with 3 × 10^6 Jurkat cells expressing the TCR of interest. These mixtures were incubated in a six-well plate for 16–20 h. Cells were stained with anti-CD69-APC-Cy7 where indicated (BioLegend) and the top 1–2% of GFP^+CD69^+ cells were sorted for genomic DNA extraction, indexing and sequencing (see below). Multiplexed assays were scaled on a per-TCR basis (for example 3 × 10^6 for each of three TCRs against 9 × 10^6 library cells). […]

Jurkat cells, No TCR = assay: Single SABR-II co-incubation, background without TCR; format: cell-based, human; conditions: No TCR, Ext. Data Fig. 6C, 18-20 hr
Source text: (§1) We performed systematic screening of the cloned TCRs against the I-Ag7 SABR-II library. Several TCRs along with a positive control (such as BDC2.5 or 4-8Ins) were screened individually against the library for each sort (Extended Data Fig. 6a and Supplementary Table 4). High- and low-confidence ES zones for each screened TCR were defined by the ES values of the control TCR’s cognate epitopes. For all putative cognate epitopes, single SABR-IIs were constructed, expressed in NFAT–GFP Jurkat cells and used for co-incubation with the corresponding TCRs. Co-incubation assays that yielded a GFP signal higher than that obtained in assays with no TCR were determined to be positive and the epitopes deemed true cognate ligands (Extended Data Fig. 6b,c). Using this strategy, we obtained epitopes in the high-confidence zone for eight TCRs (Fig. 3a and Extended Data Fig. 6b,d). Among numerous altered peptide ligands (APLs), these TCRs recognized the physiological InsC-ChgA HIP ([…] and analogs, recognized by TCR5, TCR6B, TCR9 and TCR34), InsC-Iapp HIP ([…] and analogs, recognized by TCR4 and TCR15) and InsB9:23 ([…] and analogs recognized by TCR24 and TCR37). These cognate high-confidence hits were validated using single SABR-II co-incubation assays (Fig. 3b and Extended Data Fig. 7a). Further validations using in vitro mouse interleukin-2 (mIL-2) secretion by TCR-expressing 5KC reporter cells[13] or CD25 expression by TCR-expressing splenic CD4^+ T cells upon stimulation with the cognate epitope were performed (Extended Data Fig. 7b,c). Furthermore, low-confidence hits were called for ten TCRs and tested in co-incubation assays.
(§2) For SABR library screens, 3 × 10^6 NFAT–GFP Jurkat cells expressing the SABR library were labeled with CellTrace Violet (BioLegend) according to the manufacturer’s protocol before incubation with 3 × 10^6 Jurkat cells expressing the TCR of interest. These mixtures were incubated in a six-well plate for 16–20 h. Cells were stained with anti-CD69-APC-Cy7 where indicated (BioLegend) and the top 1–2% of GFP^+CD69^+ cells were sorted for genomic DNA extraction, indexing and sequencing (see below). Multiplexed assays were scaled on a per-TCR basis (for example 3 × 10^6 for each of three TCRs against 9 × 10^6 library cells). For single SABR assays, unless otherwise defined, 5 × 10^5 SABR expressing NFAT–GFP Jurkat cells (or 5KC cells) were labeled with CellTrace Violet (BioLegend) according to the manufacturer’s protocol before incubation with 5 × 10^5 TCR-expressing Jurkat cells (or 5KC cells) in a round-bottom 96-well plate for 16–20 h. Cells were stained with anti-CD69-APC-Cy7 when indicated and acquired on the Attune NxT flow cytometer (Thermo Fisher Scientific). All flow analysis was performed using FlowJo (BD). For Daudi cell co-culture, 1 × 10^6 Jurkat cells expressing the TCR of interest were incubated with 1 × 10^6 Daudi cells expressing a SABR of interest for 3 days. On day 3, cells were labeled with anti-RT1B-PE and anti-Fas-APC-Cy7 before being acquired on the Attune NxT flow cytometer.

TCR5 = assay: Single SABR-II co-incubation, NFAT-GFP Jurkat; format: cell-based, mouse; conditions: TCR 5, Ext. Data Fig. 6C, 18-20 hr
Source text: as §1, §2

[1] = EXPT1 of 8 biological experiments

Row | Sequence | Enrichment score (BDC2.5 TCR; [1]) | Enrichment score (BDC2.5 TCR; EXPT2 of 8) | Enrichment score (BDC2.5 TCR; EXPT3 of 8) | Enrichment score (BDC2.5 TCR; EXPT4 of 8) | Enrichment score (BDC2.5 TCR; EXPT5 of 8) | Enrichment score (BDC2.5 TCR; EXPT6 of 8) | Enrichment score (BDC2.5 TCR; EXPT7 of 8) | Enrichment score (BDC2.5 TCR; EXPT8 of 8) | %GFP+CD69+ cells of SABR-NFAT-GFP-Jurkat cells (Jurkat cells, No TCR; technical replicate 1) [%] | %GFP+CD69+ cells of SABR-NFAT-GFP-Jurkat cells (Jurkat cells, No TCR; technical replicate 2) [%] | %GFP+CD69+ cells of SABR-NFAT-GFP-Jurkat cells (TCR5; technical replicate 1) [%] | %GFP+CD69+ cells of SABR-NFAT-GFP-Jurkat cells (TCR5; technical replicate 2) [%]
1 | EKAHHPIWARMDAKK | 0.000952 | 0.00052 | 0.00087 | 0.00058 | 0.001178 | 0.001392 | 0.000919 | 0.000731 | 0.55 | 0.54 | 34.4 | 35.1
2 | EKAHLAIWARMDAKK | – | – | – | – | – | – | – | – | 0.84 | 1 | 79.9 | 77.9
3 | EKAHVPIWARMDAKK | 0.000866 | 0.000378 | 0.000722 | 0.00038 | 0.000744 | 0.001001 | 0.000451 | 0.000387 | 2.48 | 2.95 | 29.9 | 30.2
4 | RLGLWSRMDQLAKELTAE | 0.001771 | 0.001151 | 0.002655 | 0.001435 | 0.002428 | 0.00271 | 0.002468 | 0.002661 | 1.36 | 1.22 | 56.2 | 56
5 | RRAGDLQTLWSRMDARR | 0.002517 | 0.001322 | 0.002797 | 0.002419 | 0.002428 | 0.002187 | 0.002605 | 0.002542 | 0.37 | 0.41 | 22.4 | 18.8
6 | SRLGLWSRMDQLAKELTAE | 0.002042 | 0.001129 | 0.002688 | 0.002123 | 0.003298 | 0.002741 | 0.00232 | 0.003121 | 1.65 | 1.6 | 73.5 | 71.6
7 | SRLGLWVRMEQLAKELTAE | 0.001795 | 0.001184 | 0.002703 | 0.001978 | 0.002454 | 0.002768 | 0.002526 | 0.002128 | 1.58 | 1.53 | 21.9 | 19.4
